The values that follow come from patent US6664231B1, “Anti-fungal peptides” (priority 1993, dated 2003).

Converted amounts (≈) assume the structure as drawn. Square brackets hold non-standard residues; d marks the D form. Peptide text beside a SMILES is read from it. 1Nal = N[C@@H](Cc1cccc2ccccc12)C(=O)O Where only a bound is given, the exact number is not on record here.

The subject of series [1] is C. albicans designated CA-1, Strain SLU-1. The note with it: designated CA-1, Strain SLU-1, 18 h. On the procedure:
In each broth assay screening procedure, a colony of C. albicans designated CA-1, Strain SLU-1 that was received from the laboratories of G. Matuschak and A. Lechner, St. Louis University Hospital, St. Louis, Mo., where the strain was maintained, was inoculated into a tube containing 5 mL Sabouraud Dextrose broth (2% dextrose, 1% neopeptone) and incubated overnight at 37° C. with shaking. The overnight culture was diluted 1:50 into 5 mL of fresh broth and incubated for 3 hours at 37° C. Organisms were pelleted by centrifugation in a Beckman J-6M centrifuge for 5 minutes at 3000 rpm (1500×g) and the pellets were resuspended in 5 mL phosphate buffered saline (PBS) and the optical density at 570 nm was determined. On the basis of the determination that one OD unit equals 3×10^7 colony forming units/mL, yeast cells were diluted to 2×10^6 cells/mL in Sabouraud Dextrose broth.
Domain III peptides derived from or based on BPI to be screened were originally constituted in Dulbecco's-PBS, were diluted to 100 μg/mL in broth and were serially diluted 2-fold into wells of a 96 well sterile, flat bottom, non-pyrogenic tissue culture plate (Costar, Cambridge, Mass.). All assays were performed in triplicate. 2×10^5 organisms were added at 100 μl per well; final volume was 200 μL/well; the plate was incubated on a shaker at 37° C. for 18 hours; and the optical densities for each well were read at 590 nm. […] The broth assay data may be set out in terms of minimum inhibitory concentration (MIC), i.e. the lowest concentration required to reduce the optical density at 590 nm to below 0.1.

Series [2] deals with C. albicans (CA-1, Strain SLU-1). In words: Radial diffusion assay. The class given is cell-based, Candida albicans. The note with it: pmoles of peptide added to well to achieve a 30 mm^2 zone, PROBIT analysis, crude or purified (P′) peptide. The gist of the method:
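Peptides, serially diluted 2-fold in D-PBS (top ~1 mg/mL), diffused 3 h at 37° C into pH 7.4 phosphate-buffered agarose seeded with 1×10^6 CFU/mL yeast, before overnight growth under a 6% Sabouraud overlayer. Net inhibition zones measured after Coomassie staining; PROBIT fit of log pmol vs area gave pmol for 30 mm^2.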

The nature of the next series: in vitro. The class given is in vitro ADME, rat or human serum. The note with it: half-life of peptide in serum as detected by HPLC analysis; for half-life at 0.5 mg/mL: serum, read-out: HPLC Peptide in Serum t ½ (converted). On the procedure:
(§1) For these serum stability experiments, peptides were prepared by solid phase peptide sythesis and purified to 94% or greater purity as described in Example 1. Blood was collected from metaphane anesthesized rats by aortic bleed into Vacutainer™ tubes and allowed to clot at room temperature for approximately 30 minutes, then centrifuged at 3000 rpm (about 1000×g) for 10 minutes at room temperature and the serum aspirated. In addition, frozen human serum (North American Biologics, Inc., Miami, Fla., cat. no. 2140, lot no. 94115) was thawed at room temperature and filtered through a 0.45 μm membrane before use.
(§2) A 1 mg/mL solution of an exemplary XMP peptide to be tested was added to an equal volume of either rat or human serum described above and maintained at 37° C. At 0, 1, 2, and 4 hours, 100 μL were removed and processed by solid phase extraction for HPLC analysis as follows. Serum samples were prepared for HPLC using C-18 Sep-Pak cartridges (1 mL cartridge with 100 mg of sorbent, Waters Corp., Milford, Mass.). One hundred μL of serum sample were added to an equal volume of 1% TFA and mixed for 30 seconds on a Vortex mixer. The sample was then applied to a C-18 Sep-Pak cartridge that had been conditioned by washing with 1 mL of methanol followed by 1 mL Milli-Q water. Weakly reed components were eluted by washing with 1 mL of 0. 1% TFA. The bound peptide was eluted with two volumes of 250 μL 80% acetonitrile/0.065% TFA.
The material eluted from the Sep-Pak cartridge was analyzed on a Michrom Ultaafast Microprotein Analyzer equipped with a 150 mm×1 mm, 5μ particle, 300 Å pore C-8 Zorbax column. The column oven was set to 40° C., the flow rate was 100 μL/minute, and injection volumes were typically 5-10 μL. HPLC was performed using 5% acetonitrile/0.1% TFA in water as mobile phase A, and 80% acetonitrile/0.065% TFA as mobile phase B. The eluate was monitored spectiophotometrically at 214 nm. Peptide standards were dissolved in mobile phase A at 0. 1 mg/mL. The gradient was 25-35% B/10 minutes followed by a 5 minute wash step of 100% B and reequilibration at 25% B for 10 minutes.

Series [3] relates to Candida albicans SLU-1 strain. In words: Serum stability, anti-fungal activity after serum incubation by radial diffusion bioassay. Format: in vitro ADME, rat or human serum. On the procedure:
as §1, §2
(§3) The peptides identified and purified after serum incubation as described above were subjected to N-terminal peptide sequencing performed on an Applied Biosystems Model 477A/120A sequencer and to electrospray ionization mass spectrometry (ESI/MS) performed using a VG Biotech Bio-Q Mass Spectrometer. In addition, the peptides identified and purified after serum incubation as described above were also tested for their anti-fungal activity in a radial diffusion bioassay with Candida albicans SLU-1 strain as described in Example 2.

Assay in series [4]: as above
The class given is in vitro ADME, rat or human serum. The note with it: Activity in Serum t ½ (hr.). On the procedure:
as §1, §2, §3

Consider `CC[C@H](C)[C@H](NC(=O)[C@H](CC(C)C)NC(=O)[C@H](Cc1c[nH]c2ccccc12)NC(=O)CNC(=O)[C@@H](NC(=O)[C@H](CCCCN)NC(=O)[C@H](CO)NC(=O)[C@@H](N)CCCCN)C(C)C)C(=O)N[C@@H](CCC(N)=O)C(=O)N[C@@H](Cc1cccc2ccccc12)C(=O)N[C@@H](Cc1ccccc1)C(=O)N[C@@H](Cc1c[nH]cn1)C(=O)N[C@@H](CCCCN)C(=O)N[C@@H](CCCCN)C(N)=O` [XMP.143] (H-KSKVGWLIQ[1Nal]FHKK-NH2), for which, in series [1], the “minimum inhibitory concentration (MIC), lowest concentration required to reduce the optical density at 590 nm to below 0.1” value worked out at 25.0 µg/mL (≈ 13.9 µM). In addition, the “C. albicans pmol/30 mm^2 zone” value in series [2] is greater than 2839 pmol/30 mm^2 zone.
In the case of `CC[C@H](C)[C@H](NC(=O)[C@H](CC(C)C)NC(=O)[C@@H](Cc1c[nH]c2ccccc12)NC(=O)[C@H](N)CCCCN)C(=O)N[C@@H](CCC(N)=O)C(=O)N[C@@H](CC(C)C)C(=O)N[C@@H](Cc1ccccc1)C(=O)N[C@@H](Cc1c[nH]cn1)C(=O)N[C@H](CCCCN)C(=O)N[C@H](CCCCN)C(N)=O` [XMP.363], the half-life at 0.5 mg/mL in “in vitro” is 11.8 h. Besides, the “C. albicans pmol/30 mm^2 zone” value is recorded as 1,015 pmol/30 mm^2 zone in series [2] and 741 pmol/30 mm^2 zone in series [2] (listed as XMP.363P′). In series [3], the “Activity in Serum t ½ (hr.)” value is “indefinite”.
Turning to `CC[C@H](C)[C@H](NC(=O)[C@H](CC(C)C)NC(=O)[C@@H](Cc1c[nH]c2ccccc12)NC(=O)[C@@H](CCCCN)NC(C)=O)C(=O)N[C@@H](CCC(N)=O)C(=O)N[C@@H](CC(C)C)C(=O)N[C@@H](Cc1ccccc1)C(=O)N[C@@H](Cc1c[nH]cn1)C(=O)N[C@H](CCCCN)C(=O)N[C@H](CCCCN)C(N)=O` [XMP.364], the half-life at 0.5 mg/mL in the series “in vitro” was 25 h. In series [2], the “C. albicans pmol/30 mm^2 zone” value is 1,523 pmol/30 mm^2 zone. The “Activity in Serum t ½ (hr.)” value in series [3] was “indefinite”.
Take `CC[C@@H](C)[C@@H](NC(=O)[C@@H](CCC(N)=O)NC(=O)[C@@H](CC(C)C)NC(=O)[C@H](N)CCCCN)C(=O)N[C@H](CC(C)C)C(=O)N[C@H](Cc1c[nH]c2ccccc12)C(=O)N[C@H](CCCCN)C(=O)N[C@H](CCCCN)C(N)=O` [XMP.374]: the “HPLC Peptide in Serum t ½ (hr.)” value in the series “in vitro” is “indefinite”. Further, the “C. albicans pmol/30 mm^2 zone” value in series [2] turned out to be 198 pmol/30 mm^2 zone. Besides, the “Activity in Serum t ½ (hr.)” value in series [3] is on record as “indefinite”.
Turning to `CC[C@@H](C)[C@@H](NC(=O)[C@@H](C)NC(=O)[C@@H](Cc1c[nH]c2ccccc12)NC(=O)[C@@H](CCCCN)NC(=O)[C@H](N)CCCCN)C(=O)N[C@H](CCC(N)=O)C(=O)N[C@H](CC(C)C)C(=O)N[C@H](CCCCN)C(=O)N[C@H](CCCCN)C(N)=O` [XMP.375] (H-[dK][dK][dW][dA][dI][dQ][dL][dK][dK]-NH2), the “HPLC Peptide in Serum t ½ (hr.)” value in “in vitro” is “indefinite”. In addition, the “C. albicans pmol/30 mm^2 zone” value in series [2] was 123 pmol/30 mm^2 zone. Also, in series [3], the “Activity in Serum t ½ (hr.)” value was “indefinite”.
As for `CC[C@@H](C)[C@@H](NC(=O)[C@@H](CCC(N)=O)NC(=O)[C@@H](CC(C)C)NC(=O)[C@@H](CCCCN)NC(=O)[C@H](N)CCCCN)C(=O)N[C@H](C)C(=O)N[C@H](Cc1c[nH]c2ccccc12)C(=O)N[C@H](CCCCN)C(=O)N[C@H](CCCCN)C(N)=O` [XMP.376] (H-[dK][dK][dL][dQ][dI][dA][dW][dK][dK]-NH2), the “HPLC Peptide in Serum t ½ (hr.)” value in the series “in vitro” is reported as “indefinite”. Further, the “C. albicans pmol/30 mm^2 zone” value in series [2] is listed as 138 pmol/30 mm^2 zone. For the same compound, in series [3], the “Activity in Serum t ½ (hr.)” value is “indefinite”.
For the compound H-KSKVGWLIQWFHKK-NH2 [XMP.142], in series [1], the “minimum inhibitory concentration (MIC), lowest concentration required to reduce the optical density at 590 nm to below 0.1” value was 12.5 µg/mL. Moreover, the “C. albicans pmol/30 mm^2 zone” value in series [2] is given as 1244 pmol/30 mm^2 zone.
Regarding H-KSKVGYLIQLFHKK-NH2 [XMP.139], the “minimum inhibitory concentration (MIC), lowest concentration required to reduce the optical density at 590 nm to below 0.1” value in series [1] was 6.25 µg/mL. The “C. albicans pmol/30 mm^2 zone” value in series [2] stood at 323 pmol/30 mm^2 zone. In series [4], this compound had a half-life at 0.5 mg/mL of 10.6 h.
For H-KSKVKFLIQLFHKK-NH2 [XMP.138], the “minimum inhibitory concentration (MIC), lowest concentration required to reduce the optical density at 590 nm to below 0.1” value in series [1] turned out to be 3.13 µg/mL. Moreover, the “C. albicans pmol/30 mm^2 zone” value in series [2] amounted to 257 pmol/30 mm^2 zone.
